Common to all, as to assay: NCI anticancer screen, dose series, 48 h
Test [1] concerns SR.
In test [2] the test system is CAKI-1.
Test [3] relates to SF-295.
The subject of test [4] is UACC-257.
Test [5] concerns Malme-3M.
Test [6] has as its system CCRF-CEM.
The subject of test [7] is DU-145.
Test [8] concerns MDA-N.
Test [9] concerns OVCAR-8.
Test [10] has as its system NCI-H226.
Test [11] has as its system ACHN.
Test [12] has as its system K562.
The test system of test [13] is PC-3.
Test [14] relates to U-251.
Test [15] has as its system SF-539.
For test [16], the system named is NCI-H522.
Test [17] concerns Hs-578T.
Test [18] relates to UACC-62.
Test [19] has as its system UO-31.

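Exposure lasted 48 hours, with cells grown in 96-well plates and compounds tested at five concentrations. GI50: concentration for 50% inhibition of growth.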 The source made the active and inactive calls. Rule as the data show it: active = GI50 up to about 1.1 µM and inactive = higher.

`O=C(OCc1c(-c2ccccc2)nn(-c2ccccc2)c1COC(=O)Oc1ccccc1)Oc1ccccc1`: the GI50 in test [1], in test [2], in [3], in [4], in test [5] and in [6] was > 100 µM (inactive) each time. For the same molecule, the GI50 in [7], in [8], in [9], in test [10], in test [11] and in test [12] was > 100 µM (inactive) throughout. Moreover, the GI50 in test [13], in test [14], in test [15], in [16], in test [17] and in test [18] was > 100 µM (inactive) in each case.
In the case of `O=C1N/C(=N/N=C\c2ccccc2)N/C1=C/c1ccc(Cl)cc1`, the GI50 in test [1] is 13.3 µM (inactive); in test [2] it was 33.2 µM (inactive); in [19] it was 16.2 µM (inactive); in [3], 25.7 µM (inactive); in [4] it was 43 µM (inactive); in test [5] it was 20.8 µM (inactive). Moreover, the GI50 in test [7] was 28.6 µM (inactive); in test [8] it was 34.3 µM (inactive); in [9] it was 21.7 µM (inactive); in [10], 15.5 µM (inactive); in test [11] it was 13.8 µM (inactive); in test [12], 34 µM (inactive). The GI50 is 18.4 µM (inactive) in test [13]; 22.8 µM (inactive) in [14]; 23.9 µM (inactive) in test [15]; 18.5 µM (inactive) in test [16]; 20.5 µM (inactive) in test [17].
Consider `Cc1ccc(OCC2OC(n3cnc4nc(N)nc(Cl)c43)CC2Oc2ccc(C)cc2)cc1` (stereo unspecified), for which the GI50 in test [1] is 6.71 µM (inactive); in test [2], 4.08 µM (inactive); in test [3], 27.6 µM (inactive); in test [4], 34.1 µM (inactive); in [5] it was 24.3 µM (inactive); in test [6], 45.1 µM (inactive). Moreover, the GI50 in [7] is 18 µM (inactive); in [8], 11.9 µM (inactive); in test [9] it was 15.7 µM (inactive); in [10], 18.1 µM (inactive); in test [11], 15.2 µM (inactive); in test [13] it was 21.9 µM (inactive). Moreover, the GI50 in test [14] is 29.6 µM (inactive); in [15], 23.3 µM (inactive); in [16] it was 15.7 µM (inactive); in [17], 15.4 µM (inactive); in test [18] it was 27.5 µM (inactive).
Turning to `CCOC(=O)c1ccc2c(=O)n3c(C(=O)OCC)ccc3c(=O)n12`, the GI50 in test [1], in [2], in test [19], in test [3], in test [4] and in test [5] was > 100 µM (inactive) throughout. Further, the GI50 in [6], in [7], in [8], in test [9], in test [10] and in [11] was > 100 µM (inactive) each time. The GI50 in test [12] was > 100 µM (inactive); in test [13], > 100 µM (inactive); in test [14], > 100 µM (inactive); in test [16] it was 60.7 µM (inactive); in [17] it was > 100 µM (inactive); in [18], > 100 µM (inactive).
Consider `O=C(Sc1c(-c2ccccc2)c(=O)n(-c2ccccc2)c(=S)n1-c1ccccc1)c1ccccc1`, for which the GI50 in [1] is 31.3 µM (inactive); in [2], > 100 µM (inactive); in [19] it was 41.6 µM (inactive); in [3] it was 47.4 µM (inactive); in test [4], > 100 µM (inactive); in test [5], > 100 µM (inactive). The GI50 in test [6] was 15.8 µM (inactive); in [7], > 100 µM (inactive); in test [8] it was 84.5 µM (inactive); in test [9], 99.3 µM (inactive); in [10] it was > 100 µM (inactive); in [11], > 100 µM (inactive). The GI50 was 29 µM (inactive) in test [12]; > 100 µM (inactive) in [13]; 79.1 µM (inactive) in test [14]; 36.1 µM (inactive) in [16]; 33.7 µM (inactive) in test [17]; 33.5 µM (inactive) in test [18].
With `C=C1C[C@@H]2CC[C@@]34CC5O[C@H]6C(O[C@H]7CC[C@H](CC(=O)O[C@@H]8[C@@H](C)[C@@H]9O[C@@H]%10C[C@]%11(C[C@@H]%12O[C@]%13(C[C@H](C)[C@@H]%14O[C@@H]%15CC(C(O)CO)O[C@@H]%15C[C@@H]%14O%13)C[C@H](C)[C@@H]%12O%11)O[C@@H]%10C[C@@H]9O[C@H]8CC8O[C@@H](CC[C@@H]1O2)C[C@@H](C)C8(O)CO)O[C@@H]7[C@@H]6O3)[C@H]5O4` (stereo partly specified), the GI50 in test [1] was > 0.625 µM (active); in [2], > 1 µM (active); in test [19], > 1 µM (active); in [3] it was > 0.796 µM (active); in [4], > 1 µM (active); in test [5], 0.394 µM (active). Also, the GI50 in test [6] was > 1 µM (active); in [7] it was > 0.916 µM (active); in test [8] it was 0.288 µM (active); in test [9], > 1 µM (active); in test [10], 0.986 µM (active); in test [11], > 1 µM (active). In addition, the GI50 in test [12] was > 0.933 µM (active); in test [13] it was 0.995 µM (active); in test [14], > 1 µM (active); in test [16], 0.184 µM (active); in test [17] it was 0.0627 µM (active); in [18] it was 0.481 µM (active).
For the molecule `Cc1sc2nc3n(c(=O)c2c1C)N=CN(c1ccc(F)cc1)C3`, the GI50 in [1] was > 100 µM (inactive); in test [2], > 100 µM (inactive); in test [19], > 100 µM (inactive); in test [3], 72.9 µM (inactive); in [4], > 100 µM (inactive); in test [5], 25 µM (inactive). Moreover, the GI50 is > 100 µM (inactive) in test [6]; > 100 µM (inactive) in [7]; > 100 µM (inactive) in test [8]; 65.6 µM (inactive) in [9]; > 100 µM (inactive) in test [10]; 29 µM (inactive) in [11]. The GI50 in test [12] was > 100 µM (inactive); in [13], > 100 µM (inactive); in test [14] it was 50.1 µM (inactive); in test [16], 69.3 µM (inactive); in test [17], 22.4 µM (inactive); in [18], > 100 µM (inactive).
`NC(=O)C1CCCN1C(=O)C(Cc1c[nH]cn1)NC(=O)C1CCCC1` (stereo unspecified): the GI50 in test [1], in test [2], in [19], in [3], in test [5] and in test [6] was > 100 µM (inactive) each time. Also, the GI50 in test [7], in test [8], in test [9], in [10], in [11] and in test [12] was > 100 µM (inactive) in each case. For the same molecule, the GI50 in [13], in test [14], in [16], in test [17] and in [18] was > 100 µM (inactive) in each case.
